# From patent US5608091A, “Quinizarin compound, method for production thereof, and use therefor” (Nippon Shokubai Co., Ltd., priority 1993, dated 1997)
# Tests used:
# [1] = Solubility in toluene and methyl ethyl ketone, three-point scale; format: physicochemical
# Description: In these tables, the solubility is rated on the three-point scale, wherein Δ stands for a solubility of less than 1% by weight, .largecircle. for a solubility in the approximate range of 1 to 3% by weight, and .circleincircle. for a solubility of not less than 3% by weight.
# [2] = Stability in storage of thermal transfer recorded images; conditions: 50° C., 50 hours
# Method: The recorded images obtained as described above were left standing in an atmosphere kept at 50° C. for 50 hours and, after the standing, were examined to determine the presence or absence of change caused on the images owing to the standing.
# (§1) Ink compositions were prepared, transfer sheets produced, and transfer recording carried out by following the procedure of Example 89 while using the dye shown in Table 11 instead. The recorded images were tested for lightfastness and then for stability in storage in the same manner as in Example 89.
# as §1, with “dyes” for “dye”, “12” for “11”
# [3] = Visible absorption spectrum (λmax, ε); format: physicochemical; conditions: in chloroform; for ε: at λ max, in M-1 cm-1 (unit assumed)
# Color tone of the dye = format: physicochemical; conditions: Tables 1-9
SMILES,Stability in storage [2],λ max [3] [nm],ε [3],Color tone (Color tone of the dye),Solubility in methyl ethyl ketone [1],Solubility in toluene [1]
CC(C)c1cccc(C(C)C)c1Nc1c(F)c2c(c(F)c1Nc1c(C(C)C)cccc1C(C)C)C(=O)c1c(O)ccc(O)c1C2=O [(139)],Good,660,26000,Cyan,.largecircle. (a solubility in the approximate range of 1 to 3% by weight),.circleincircle. (a solubility of not less than 3% by weight)
O=C1c2c(O)ccc(O)c2C(=O)c2c(F)c(Nc3c(Cl)cccc3Cl)c(F)c(F)c21 [(22)],Good,521,9470,Magenta,.largecircle. (a solubility in the approximate range of 1 to 3% by weight),.circleincircle. (a solubility of not less than 3% by weight)

# Further lines, with some results ahead:
Stability in storage [2],λ max [3] [nm],ε [3],Color tone (Color tone of the dye),SMILES,Solubility in methyl ethyl ketone [1],Solubility in toluene [1]
Good,657,3000,Cyan,CCc1cccc(CC)c1Nc1c(F)c2c(c(F)c1Nc1c(CC)cccc1CC)C(=O)c1c(O)ccc(O)c1C2=O [(137)],.largecircle. (a solubility in the approximate range of 1 to 3% by weight),.circleincircle. (a solubility of not less than 3% by weight)
Good,534,12700,Magenta,CCCCCCCCOc1c(F)c2c(c(F)c1Nc1ccc(C(=O)OCCCC)cc1)C(=O)c1c(O)ccc(O)c1C2=O [(36)],.circleincircle. (a solubility of not less than 3% by weight),.circleincircle. (a solubility of not less than 3% by weight)
Good,524,13200,Magenta,CCCCCCCCOc1c(F)c2c(c(F)c1Nc1ccc([N+](=O)[O-])cc1)C(=O)c1c(O)ccc(O)c1C2=O [(41)],.circleincircle. (a solubility of not less than 3% by weight),.circleincircle. (a solubility of not less than 3% by weight)
